# Data reported in the NIST ThermoML archive (doi:10.1021/je100083w).
# ± gives the expanded uncertainty stated by the source.
# Details: Liquid, Bellows volumetry
compound,measurement,setting,value
O [water],specific volume,"273.67 K, 199000 kPa",0.0009252 ± 5e-07 m3/kg
same,specific volume,"273.68 K, 348800 kPa",0.0008889 ± 5e-07 m3/kg
same,specific volume,"273.74 K, 298900 kPa",0.0009003 ± 5e-07 m3/kg
same,specific volume,"273.82 K, 350400 kPa",0.0008893 ± 5e-07 m3/kg
same,specific volume,"283.33 K, 199000 kPa",0.000928 ± 5e-07 m3/kg
same,specific volume,"283.36 K, 69000 kPa",0.0009704 ± 5e-07 m3/kg
same,specific volume,"283.39 K, 298700 kPa",0.0009035 ± 5e-07 m3/kg
same,specific volume,"283.43 K, 249000 kPa",0.000915 ± 5e-07 m3/kg
same,specific volume,"283.43 K, 349100 kPa",0.0008928 ± 5e-07 m3/kg
same,specific volume,"283.47 K, 199000 kPa",0.0009281 ± 5e-07 m3/kg
same,specific volume,"283.48 K, 149100 kPa",0.0009425 ± 5e-07 m3/kg
same,specific volume,"283.49 K, 149300 kPa",0.0009423 ± 5e-07 m3/kg
same,specific volume,"283.5 K, 69200 kPa",0.0009702 ± 5e-07 m3/kg
same,specific volume,"283.5 K, 248900 kPa",0.0009152 ± 5e-07 m3/kg
same,specific volume,"283.51 K, 98900 kPa",0.0009592 ± 5e-07 m3/kg
same,specific volume,"283.51 K, 99000 kPa",0.0009591 ± 5e-07 m3/kg
same,specific volume,"283.52 K, 148800 kPa",0.0009426 ± 5e-07 m3/kg
same,specific volume,"283.53 K, 198900 kPa",0.000928 ± 5e-07 m3/kg
same,specific volume,"283.54 K, 69000 kPa",0.0009703 ± 5e-07 m3/kg
same,specific volume,"283.54 K, 249100 kPa",0.0009148 ± 5e-07 m3/kg
same,specific volume,"283.56 K, 299300 kPa",0.0009032 ± 5e-07 m3/kg
same,specific volume,"283.6 K, 299000 kPa",0.0009038 ± 5e-07 m3/kg
same,specific volume,"283.62 K, 349300 kPa",0.0008926 ± 5e-07 m3/kg
same,specific volume,"283.7 K, 99000 kPa",0.0009592 ± 5e-07 m3/kg
same,specific volume,"283.72 K, 348000 kPa",0.0008941 ± 5e-07 m3/kg
same,specific volume,"293.2 K, 249000 kPa",0.0009188 ± 5e-07 m3/kg
same,specific volume,"293.22 K, 299000 kPa",0.0009073 ± 5e-07 m3/kg
same,specific volume,"293.23 K, 149200 kPa",0.0009458 ± 5e-07 m3/kg
same,specific volume,"293.25 K, 199000 kPa",0.0009316 ± 5e-07 m3/kg
same,specific volume,"293.28 K, 99300 kPa",0.0009619 ± 5e-07 m3/kg
same,specific volume,"293.31 K, 349200 kPa",0.000897 ± 5e-07 m3/kg
same,specific volume,"293.34 K, 349300 kPa",0.0008968 ± 5e-07 m3/kg
same,specific volume,"293.35 K, 69300 kPa",0.0009728 ± 5e-07 m3/kg
same,specific volume,"293.38 K, 299400 kPa",0.0009073 ± 5e-07 m3/kg
same,specific volume,"293.39 K, 199400 kPa",0.0009315 ± 5e-07 m3/kg
same,specific volume,"293.39 K, 249000 kPa",0.0009189 ± 5e-07 m3/kg
same,specific volume,"293.4 K, 99100 kPa",0.000962 ± 5e-07 m3/kg
same,specific volume,"293.41 K, 149100 kPa",0.0009458 ± 5e-07 m3/kg
same,specific volume,"293.42 K, 68900 kPa",0.0009729 ± 5e-07 m3/kg
same,specific volume,"293.46 K, 199100 kPa",0.0009322 ± 5e-07 m3/kg
same,specific volume,"293.47 K, 99200 kPa",0.0009625 ± 5e-07 m3/kg
same,specific volume,"293.49 K, 148800 kPa",0.0009465 ± 5e-07 m3/kg
same,specific volume,"293.5 K, 100 kPa",0.001002 ± 5e-07 m3/kg
same,specific volume,"293.52 K, 248900 kPa",0.0009196 ± 5e-07 m3/kg
same,specific volume,"293.53 K, 100 kPa",0.001002 ± 5e-07 m3/kg
same,specific volume,"293.53 K, 349200 kPa",0.0008974 ± 5e-07 m3/kg
same,specific volume,"293.54 K, 299000 kPa",0.000908 ± 5e-07 m3/kg
same,specific volume,"293.55 K, 100 kPa",0.001002 ± 5e-07 m3/kg
same,specific volume,"293.6 K, 69200 kPa",0.0009732 ± 5e-07 m3/kg
same,specific volume,"303.35 K, 98500 kPa",0.0009655 ± 5e-07 m3/kg
same,specific volume,"303.37 K, 69200 kPa",0.0009758 ± 5e-07 m3/kg
same,specific volume,"303.4 K, 98900 kPa",0.0009651 ± 5e-07 m3/kg
same,specific volume,"303.4 K, 148900 kPa",0.000949 ± 5e-07 m3/kg
same,specific volume,"303.41 K, 198900 kPa",0.0009347 ± 5e-07 m3/kg
same,specific volume,"303.42 K, 68900 kPa",0.0009761 ± 5e-07 m3/kg
same,specific volume,"303.42 K, 69800 kPa",0.0009757 ± 5e-07 m3/kg
same,specific volume,"303.43 K, 248900 kPa",0.000922 ± 5e-07 m3/kg
same,specific volume,"303.48 K, 99200 kPa",0.0009653 ± 5e-07 m3/kg
same,specific volume,"303.48 K, 149000 kPa",0.0009492 ± 5e-07 m3/kg
same,specific volume,"303.49 K, 299100 kPa",0.0009104 ± 5e-07 m3/kg
same,specific volume,"303.51 K, 149100 kPa",0.0009494 ± 5e-07 m3/kg
same,specific volume,"303.52 K, 349300 kPa",0.0008999 ± 5e-07 m3/kg
same,specific volume,"303.55 K, 299100 kPa",0.000911 ± 5e-07 m3/kg
same,specific volume,"303.56 K, 199000 kPa",0.000935 ± 5e-07 m3/kg
same,specific volume,"303.57 K, 198800 kPa",0.0009353 ± 5e-07 m3/kg
same,specific volume,"303.57 K, 248800 kPa",0.0009226 ± 5e-07 m3/kg
same,specific volume,"303.57 K, 249300 kPa",0.0009222 ± 5e-07 m3/kg
same,specific volume,"303.61 K, 299200 kPa",0.0009108 ± 5e-07 m3/kg
same,specific volume,"303.63 K, 349200 kPa",0.0009004 ± 5e-07 m3/kg
same,specific volume,"303.72 K, 349100 kPa",0.0009003 ± 5e-07 m3/kg
same,specific volume,"313.38 K, 149300 kPa",0.0009528 ± 5e-07 m3/kg
same,specific volume,"313.38 K, 349300 kPa",0.0009051 ± 5e-07 m3/kg
same,specific volume,"313.39 K, 69100 kPa",0.0009801 ± 5e-07 m3/kg
same,specific volume,"313.39 K, 98800 kPa",0.000969 ± 5e-07 m3/kg
same,specific volume,"313.39 K, 148800 kPa",0.0009534 ± 5e-07 m3/kg
same,specific volume,"313.4 K, 69100 kPa",0.0009799 ± 5e-07 m3/kg
same,specific volume,"313.4 K, 98600 kPa",0.0009695 ± 5e-07 m3/kg
same,specific volume,"313.4 K, 199200 kPa",0.0009386 ± 5e-07 m3/kg
same,specific volume,"313.41 K, 99000 kPa",0.0009696 ± 5e-07 m3/kg
same,specific volume,"313.42 K, 149000 kPa",0.0009538 ± 5e-07 m3/kg
same,specific volume,"313.42 K, 198900 kPa",0.0009393 ± 5e-07 m3/kg
same,specific volume,"313.43 K, 69000 kPa",0.0009796 ± 5e-07 m3/kg
same,specific volume,"313.44 K, 249300 kPa",0.0009265 ± 5e-07 m3/kg
same,specific volume,"313.44 K, 299600 kPa",0.0009155 ± 5e-07 m3/kg
same,specific volume,"313.44 K, 348900 kPa",0.000904 ± 5e-07 m3/kg
same,specific volume,"313.45 K, 248900 kPa",0.0009271 ± 5e-07 m3/kg
same,specific volume,"313.46 K, 199100 kPa",0.0009397 ± 5e-07 m3/kg
same,specific volume,"313.46 K, 249200 kPa",0.0009259 ± 5e-07 m3/kg
same,specific volume,"313.46 K, 299400 kPa",0.0009151 ± 5e-07 m3/kg
same,specific volume,"313.46 K, 349500 kPa",0.0009046 ± 5e-07 m3/kg
same,specific volume,"313.48 K, 299700 kPa",0.0009144 ± 5e-07 m3/kg
same,specific volume,"323.04 K, 248700 kPa",0.0009318 ± 5e-07 m3/kg
same,specific volume,"323.09 K, 198800 kPa",0.0009435 ± 5e-07 m3/kg
same,specific volume,"323.13 K, 299200 kPa",0.0009196 ± 5e-07 m3/kg
same,specific volume,"323.17 K, 249000 kPa",0.0009307 ± 5e-07 m3/kg
same,specific volume,"323.17 K, 349400 kPa",0.0009091 ± 5e-07 m3/kg
same,specific volume,"323.19 K, 299100 kPa",0.0009191 ± 5e-07 m3/kg
same,specific volume,"323.21 K, 349000 kPa",0.0009095 ± 5e-07 m3/kg
same,specific volume,"323.25 K, 248900 kPa",0.0009312 ± 5e-07 m3/kg
same,specific volume,"323.26 K, 298400 kPa",0.0009203 ± 5e-07 m3/kg
same,specific volume,"323.28 K, 199000 kPa",0.0009438 ± 5e-07 m3/kg
same,specific volume,"323.3 K, 149300 kPa",0.0009578 ± 5e-07 m3/kg
same,specific volume,"323.31 K, 99100 kPa",0.0009737 ± 5e-07 m3/kg
same,specific volume,"323.33 K, 69200 kPa",0.0009842 ± 5e-07 m3/kg
same,specific volume,"323.34 K, 198300 kPa",0.0009446 ± 5e-07 m3/kg
same,specific volume,"323.34 K, 349300 kPa",0.0009085 ± 5e-07 m3/kg
same,specific volume,"323.35 K, 68300 kPa",0.0009846 ± 5e-07 m3/kg
same,specific volume,"323.35 K, 149000 kPa",0.0009578 ± 5e-07 m3/kg
same,specific volume,"323.37 K, 99600 kPa",0.0009736 ± 5e-07 m3/kg
same,specific volume,"323.41 K, 149200 kPa",0.0009584 ± 5e-07 m3/kg
same,specific volume,"323.43 K, 99200 kPa",0.0009742 ± 5e-07 m3/kg
same,specific volume,"323.46 K, 68800 kPa",0.0009848 ± 5e-07 m3/kg
